The results in this text go back to patent publication US10519125B2, “Flavagline derivatives” (PIERRE FABRE MEDICAMENT, priority 2014, dated 2019).

Read-outs that look alike come from different tables or passages of the source.

In data set [1] the test system is MDA-MB-231 human tumor xenograft. Kind of data set: Antitumor activity, subcutaneous MDA-MB-231 breast cancer xenografts in SCID mice. It is filed as in vivo. Conditions: for Activity: q1d5 × 3, MDA-MB-231; for Deaths (%): q1d5 × 3, SCID mice. The protocol:
Subcutaneous xenografts were established with MDA-MD-231 breast cancer cells (ATCC: HTB-26) in SCID mice (Harlan, U.K.). The animals were treated and cared after in accordance with the Guide For the Care and Use of Laboratory Animals (National Research Council, 1996) and with European Directive 86/609/EEC, under the supervision of a staff expert authorized to conduct experimental studies with laboratory animals.
All the experiments were conducted pursuant to French and local regulations (Department of Veterinary Services, Haute-Garonne, Toulouse) according to the directives of an ethics committee, based on the UKCCCR Guidelines for the Welfare of Animals in Experimental Neoplasia, as indicated above. The implantation of MDA-MB-231 human tumor fragments is carried subcutaneously in the flanks of SCID mice using a trocar and, for the study of tumor growth, the tumors are allowed to reach a median volume of 70-130 mm^3 before starting the studies.
After randomization in the treatment cages, the inhibitors were administered intravenously according to a g1d5×3 treatment scheme (5 injections per week for 3 weeks). The mice were monitored and weighed daily. The tumors were measured with a slide caliper and the tumor volumes (mm^3) were estimated using the following formula: volume=0.5 (length×width^2). Each experimental group consists of 5 individuals. The efficacy of the treatment was evaluated by analysis of the measurement of the median volume of the treated tumors compared with the median volume of the tumors receiving only carrier (control). The T/C evaluation criterion corresponds to: [(median volume of the treated group, T/median volume of the control group, C)×100]. This T/C ratio is expressed as a percentage. The optimal T/C value corresponds to the ratio which reflects the maximum inhibition of growth obtained during the study. The maximum gains or losses of weight, expressed as a percentage of the initial weight of the animals, as well as the percentage of drug-related deaths (i.e., the percentage of treated animals that died before the assessment) were used to provide an evaluation of the toxicity of the compounds. In accordance with the NCI (National Cancer Institute) criterion, a dose is deemed toxic if it induces weight loss greater than −20% relative to the initial weight of the mouse or if it induces more than 20% deaths (Corbett et al. J Exp Ther Oncol 1996, 1:95-108).

The subject of data set [2] is HCT116 line (human colon cancer cell line). The data set is described as follows: Antiproliferative (cytotoxic) activity on HCT116 line, ATPLite cell viability, 72 hours. The note with it: read-out: HCT116 (EC50). It is filed as cell-based. The procedure:
2.1. Antiproliferative Activity of the Compounds According to the Invention (IC50 in M)
Culture of Lines and Measurement of Cell Viability:
The HCT116 line (ATCC, CCL-247) derived from colon cancer was cultured in MEM (Minimum Essential Medium Eagle) supplemented with 2 mM L-glutamine (Sigma, G7513), 5% fetal calf serum (Sigma, F7524) and antibiotics (Sigma, A59-55). The protocol for determining cytotoxic activity consists in seeding cells on 96-well plates (Perkin Elmer, 6005668) at a density of 1500 cells per well. After 24 hours of incubation, the test compound is applied in each well, using serial dilutions in the solvent dimethylsulfoxide (DMSO) (Sigma, D8418), from 10 mM stock solutions in 100% DMSO. Each dilution was added to the cells 24 hours after seeding. Under these conditions, the final solvent concentration is 0.1% DMSO. A reading of cell proliferation was carried out 72 hours after addition of the products with the ATPLite™ kit (Perkin Elmer, 6016947) and according to the manufacturer's recommendations. The analysis of the proliferation results was carried out by comparison with conditions where only the carrier solvent (culture medium, 0.1% DMSO) was added to the cells. The dose-response curves obtained were analyzed using the PRISM 4.03 software (GraphPad Software Inc.), or by an equivalent analytical method, to determine the concentration of each compound which inhibits 50% of cell proliferation (EC50).
By way of example, the cytotoxic properties of several compounds of the invention evaluated on the HCT116 line (human colon cancer cell line) are reported in Table 1.
Background: ATP-based viability assays read luminescence as a measure of living cells.

Where [3] appears, read: Mus musculus, MDA-MB-231, iv, read-out: Opt. T/C (%).
Setting [4] is: HCT-116, HCT116, 72 hours after addition, ATPLite.

Consider `COc1ccc([C@@]23Oc4cc(OCCN5CCN(C)CC5)cc(OC)c4[C@]2(O)[C@H](O)[C@H](c2nnc(N)o2)[C@H]3c2ccccc2)cc1` (racemic) [Compound 22, rac-(1R,2R,3S,3aR,8bS)-2-(5-amino-1,3,4-oxadiazol-2-yl)-8-methoxy-3a-(4-methoxyphenyl)-6-(2-(4-methylpiperazin-1-yl)ethoxy)-3-phenyl-2,3,3a,8b-tetrahydro-1H-cyclopenta[b]benzofuran-1,8b-diol], for which, in data set [1] (1.4 mg/kg intravenously), the outcome was Active and the “Deaths (%)” value was determined as 0%. For the same molecule, the response vs control in vivo at 1.4 mg/kg in data set [1] (setting [3]) amounted to 21%.

By EC50 is commonly meant the concentration giving half of the maximal effect. Regarding `COc1ccc([C@@]23Oc4cc(OCCCC(O)CO)cc(OC)c4[C@]2(O)[C@@H]2OC(=O)N[C@@H]2[C@H]3c2ccccc2)cc1` (mixture of isomers) [Compound 41, rac-(3aR,4R,4aR,9bS,9cR)-7-((4,5-dihydroxypentyl)oxy)-9b-hydroxy-9-methoxy-4a-(4-methoxyphenyl)-4-phenyl-3,3a,4,4a,9b,9c-hexahydro-2H-benzofuro[3′,2′:3,4]cyclopenta[1,2-d]oxazol-2-one], the concentration giving a half-maximal response (EC50) in data set [2] (setting [4]) is 4.2 nM.

As to `COc1ccc([C@@]23Oc4cc(OC)cc(OC)c4[C@]2(O)[C@@H]2OC(N)=N[C@@H]2[C@H]3c2ccccc2)cc1` (racemic) [Compound 47, rac-(3aR,4R,4aR,9bS,9cR)-2-amino-7,9-dimethoxy-4a-(4-methoxyphenyl)-4-phenyl-4,4a,9b,9c-tetrahydro-3aH-benzofuro[3′,2′:3,4]cyclopenta[1,2-d]oxazol-9b-ol], the 50% effective concentration (EC50) in data set [2] (setting [4]) is 1.1 nM.

On to `COc1ccc([C@@]23Oc4cc(OC)cc(OC)c4[C@]2(O)[C@H](O)[C@H](c2nnc(C)[nH]2)[C@H]3c2ccccc2)cc1` (racemic) [Compound 30, rac-(1R,2S,3S,3aR,8bS)-6,8-dimethoxy-3a-(4-methoxyphenyl)-2-(5-methyl-4H-1,2,4-triazol-3-yl)-3-phenyl-2,3,3a,8b-tetrahydro-1H-cyclopenta[b]benzofuran-1,8b-diol], for which, in data set [1] (0.7 mg/kg intravenously), the result was Active and the “Deaths (%)” value is on record as 0%. In addition, the response vs control in vivo at 0.7 mg/kg in data set [1] (setting [3]) is 15%.

Take `COc1ccc([C@@]23Oc4cc(OC)cc(OC)c4[C@]2(O)[C@@H]2OC(=O)N[C@@H]2[C@H]3c2ccccc2)cc1` (racemic) [Compound 40, rac-(3aR,4R,4aR,9bS,9cR)-9b-hydroxy-7,9-dimethoxy-4a-(4-methoxyphenyl)-4-phenyl-3,3a,4,4a,9b,9c-hexahydro-2H-benzofuro[3′,2′:3,4]cyclopenta[1,2-d]oxazol-2-one]: the EC50 in data set [2] (setting [4]) stood at 2.52 nM.

For `COC(=O)[C@H]1[C@@H](O)[C@@]2(O)c3c(OC)cc(OCCCCN(C)C)cc3O[C@@]2(c2ccc(OC)cc2)[C@@H]1c1ccccc1` (racemic) [Compound 52, rac-methyl (1R,2R,3S,3aR,8bS)-6-(4-(dimethylamino)butoxy)-1,8b-dihydroxy-8-methoxy-3a-(4-methoxyphenyl)-3-phenyl-2,3,3a,8b-tetrahydro-1H-cyclopenta[b]benzofuran-2-carboxylate], in data set [2] (setting [4]), the EC50 was 4.9 nM.

For the molecule `COc1ccc([C@@]23Oc4cc(OC)cc(OC)c4[C@]2(O)[C@H](O)[C@H](c2nnc(N)o2)[C@H]3c2ccccc2)cc1` [Compound 19, (1R,2R,3S,3aR,8bS)-2-(5-amino-1,3,4-oxadiazol-2-yl)-6,8-dimethoxy-3a-(4-methoxyphenyl)-3-phenyl-2,3,3a,8b-tetrahydro-1H-cyclopenta[b]benzofuran-1,8b-diol], in data set [1] (1.3 mg/kg intravenously), the result was Active and the “Deaths (%)” value amounted to 0%. For the same molecule, in data set [1] (setting [3]), the response vs control in vivo at 1.3 mg/kg is 26%.

`COc1ccc([C@@]23Oc4cc(OCCCCO)cc(OC)c4[C@]2(O)[C@@H]2OC(=O)N[C@@H]2[C@H]3c2ccccc2)cc1` (racemic) [Compound 42, rac-(3aR,4R,4aR,9bS,9cR)-9b-hydroxy-7-(4-hydroxybutoxy)-9-methoxy-4a-(4-methoxyphenyl)-4-phenyl-3,3a,4,4a,9b,9c-hexahydro-2H-benzofuro[3′,2′:3,4]cyclopenta[1,2-d]oxazol-2-one]: the EC50 in data set [2] (setting [4]) worked out at 2.16 nM.

As to `COC(=O)[C@H]1[C@@H](O)[C@@]2(O)c3c(OC)cc(OCCCCN)cc3O[C@@]2(c2ccc(OC)cc2)[C@@H]1c1ccccc1` [Compound 50, methyl (1R,2R,3S,3aR,8bS)-6-(4-aminobutoxy)-1,8b-dihydroxy-8-methoxy-3a-(4-methoxyphenyl)-3-phenyl-2,3,3a,8b-tetrahydro-1H-cyclopenta[b]benzofuran-2-carboxylate], the EC50 in data set [2] (HCT-116, 72 h) was found to be 1.22 nM.

Turning to `COC(=O)[C@H]1[C@@H](O)[C@@]2(O)c3c(OC)cc(OCCCCN)cc3O[C@@]2(c2ccc(OC)cc2)[C@@H]1c1ccccc1` (racemic) [Compound 8, rac-(1R,2R,3S,3aR,8bS)-methyl 6-(4-aminobutoxy)-1,8b-dihydroxy-8-methoxy-3a-(4-methoxyphenyl)-3-phenyl-2,3,3a,8b-tetrahydro-1H-cyclopenta[b]benzofuran-2-carboxylate], in data set [2] (HCT-116, 72 h), the half-maximal effective concentration (EC50) worked out at 2.61 nM.

In the case of `COc1ccc([C@@]23Oc4cc(OCCN(C)C)cc(OC)c4[C@]2(O)[C@H](O)[C@H](c2nnc(N)o2)[C@H]3c2ccccc2)cc1` (racemic) [Compound 21, rac-(1R,2R,3S,3aR,8bS)-2-(5-amino-1,3,4-oxadiazol-2-yl)-6-(2-(dimethylamino)ethoxy)-8-methoxy-3a-(4-methoxyphenyl)-3-phenyl-2,3,3a,8b-tetrahydro-1H-cyclopenta[b]benzofuran-1,8b-diol], in data set [1] (1 mg/kg intravenously), the result was Active and the “Deaths (%)” value is recorded as 0%. Further, the response vs control in vivo at 1 mg/kg in data set [1] (setting [3]) turned out to be 22%.

Consider `CNc1nnc([C@H]2[C@@H](O)[C@@]3(O)c4c(OC)cc(OC)cc4O[C@@]3(c3ccc(OC)cc3)[C@@H]2c2ccccc2)o1` (racemic) [Compound 24, rac-(1R,2R,3S,3aR,8bS)-6,8-dimethoxy-3a-(4-methoxyphenyl)-2-(5-(methylamino)-1,3,4-oxadiazol-2-yl)-3-phenyl-2,3,3a,8b-tetrahydro-1H-cyclopenta[b]benzofuran-1,8b-diol], for which, in data set [1] (2.8 mg/kg intravenously), the result was Active and the “Deaths (%)” value worked out at 0%. Also, in data set [1] (setting [3]), the response vs control in vivo at 2.8 mg/kg worked out at 25%.

Turning to `COc1ccc([C@@]23Oc4cc(OC)cc(OC)c4[C@]2(O)[C@H](O)[C@H](c2nnc(N)o2)[C@H]3c2ccccc2)cc1` (racemic) [Compound 18, rac-(1R,2R,3S,3aR,8bS)-2-(5-amino-1,3,4-oxadiazol-2-yl)-6,8-dimethoxy-3a-(4-methoxyphenyl)-3-phenyl-2,3,3a,8b-tetrahydro-1H-cyclopenta[b]benzofuran-1,8b-diol], in data set [1] (2.5 mg/kg intravenously), the outcome was Active and the “Deaths (%)” value is 0%. In data set [1] (3.5 mg/kg intravenously), the result was Active and the “Deaths (%)” value is on record as 0%. Further, in data set [1] (setting [3]), the response vs control in vivo at 2.5 mg/kg came to 40% and the response vs control in vivo at 3.5 mg/kg was determined as 6%.
